“And” between values parts separate entries of the source, which are not always exact repeats. Equal values may be shown once. Read-outs that look alike come from different tables or passages of the source.
How the values were obtained:
[1] = target: T1, CXCR3 (Homo sapiens, UniProt P49682); assay: [35S]GTPγS incorporation assay; format: biochemical; details: for CXCR3 mediated G protein activation (result in words): [35S]GTPγS incorporation; for CXCR3 pEC50 ± SEM: mean of three experiments in triplicate; for Emax: read-out: CXCR3 Efficacy (%) ± SEM
T1 construct: expressed in transfected cells; host or cells: HEK293 / HEK293T cells, stably transfected; membrane preparations
T1 sequence (P49682 1-368): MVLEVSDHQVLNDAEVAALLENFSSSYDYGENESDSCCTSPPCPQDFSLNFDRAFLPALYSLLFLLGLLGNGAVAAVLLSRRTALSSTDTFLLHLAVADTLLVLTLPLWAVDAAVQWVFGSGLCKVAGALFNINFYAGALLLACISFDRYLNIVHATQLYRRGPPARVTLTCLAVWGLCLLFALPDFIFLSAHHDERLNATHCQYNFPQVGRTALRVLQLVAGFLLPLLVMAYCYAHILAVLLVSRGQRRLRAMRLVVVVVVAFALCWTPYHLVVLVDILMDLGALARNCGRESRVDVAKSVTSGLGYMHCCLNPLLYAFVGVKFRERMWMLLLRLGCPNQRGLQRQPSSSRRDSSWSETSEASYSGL
Protocol: Membrane preparation for allosteric radioligand RAMX3 displacement and [^35S]GTPγS incorporation assays: The human embryonic kidney (HEK) cells stably expressing the human CXCR3 receptor were cultured in 150-mm cell culture plates in DMEM/F-12 supplemented with 10% fetal bovine serum (FBS), 2 mM L-glutamine, 1% penicillin-streptomycin, 300 µgmL^-1 Zeocin and incubated at 37 °C in a humid atmosphere with 5% CO2. At 100% confluency cells were washed with PBS twice, treated with Tris EDTA buffer (10 mM Tris, 0.5 mM EDTA, 5 mM KCl, 140 mM NaCl, pH 7.4), and harvested using a cell scraper. Cells were pelleted at 1100×g for 8 min at 4 °C, resuspended in Tris-EDTA-MgCl2 buffer (50mM Tris, 5 mM EDTA, 1.5 mM CaCl2, 5 mM MgCl2, 5 mM KCl, 120 mM NaCl, pH 7.4) and followed by lysis with an Ultra-Turrax. After centrifugation at 50,000•g, at 4°C for 18 min the membranes were resuspended in the binding buffer (50 mM Tris, 1 mM EDTA, 5 mM MgCl2 and subsequently homogenized with a glass-Teflon homogenizer (20 strokes). The homogenized membranes were shock-frozen in liquid nitrogen and stored at -80°C. The protein concentration was determined with the Lowry method with bovine serum albumin used as a standard.^35
[^35S]GTPγS incorporation assay: The [^35S]GTPγS incorporation assay was performed on membrane preparations of stably transfected HEK293 cells that expressed the CXCR3 receptor. The assay was carried out in 96-well plates at the final volume of 200 µL. The incubation buffer contained 20 mM HEPES, 10 mM MgCl2•6H20,100 mM NaCl and 100 mg/L saponin (pH 7.4). Membranes (30 µgmL^-1 of membrane protein), various concentrations of test compound and CXCL11, and 1 µM GDP were preincubated in the absence of [^35S]GTPγS for 30 min at 37 °C. After the addition of 0.10 nM [^35S]GTPγS membranes were incubated for additional 30 min at 37 °C. Incubation was terminated by filtration through Whatman GF/B filters soaked with ice cold PBS. The filter-bound radioactivity was measured as described above. Three to four experiments per compound were performed with each concentration in triplicate.
The activation of G proteins was explored in terms of CXCR3 mediated [^35S]GTPγS incorporation. In the [^35S]GTPγS incorporation assay the membrane preparations of HEK293T cells stably expressing CXCR3 were used. The activation of G proteins was monitored as the incorporation of [^35S]GTPγS and thus increase in the incorporated radioactivity. The potency and efficacy of the novel compounds was first compared to the reference compound 46/VUF10661. […] Table 1. The ability of the 46/VUF10661 based positive allosteric modulators to activate CXCR3 as measured in the [35S]GTPγS incorporation assay.[a]

[2] = target: T2, CXCR3-PK1 (Homo sapiens, UniProt P49682); assay: β-arrestin 2 recruitment assay (PathHunter, DiscoveRx), CXCR3-PK1 construct; format: cell-based
T2 construct: expressed in transfected cells; host or cells: HEK293 cells stably expressing beta-gal enzyme acceptor (PathHunter, DiscoveRx), transiently transfected
T2 sequence (P49682 1-368): T1 sequence (P49682 1-368)
Protocol: β-arrestin 2 recruitment assay: The measurement of β-arrestin recruitment was performed utilizing the PathHunter assay purchased from DiscoveRx (DiscoveRx, Birmingham, U.K.) according to the manufacturer's protocol. HEK293 cells stably expressing β-gal enzyme acceptor were transiently transfected with the ProLink (PK1) tagged wildtype CXCR3 receptor using the TransIT-293 transfection reagent from Mirus (purchased from MoBiTec, Goettingen, Germany). The assay was carried out in 384-well plates containing 2000 cells in 20 µL. After incubation at 37°C (5% CO2, 95% relative humidity) overnight, various concentrations of test compounds or CXCL11 (prepared in PBS, pH 7.4, containing 0.20% BSA) were added and the incubation continued for 4 h. Detection mix was then added and incubated for further 60 min at room temperature. Chemiluminescence was determined with a microplate reader Clariostar (BMG labtech, Ortenberg, Germany).
The ability of the novel ligands according to the present invention to induce CXCR3-mediated β-arrestin 2 recruitment was investigated in the assay system PathHunter (DiscoveRx), which detects the recruitment of β-amestin 2 to the activated receptor using β-galactosidase (β-gal) enzyme fragment complementation. The inventors used two different ProLink tags, ProLink1 (PK1) and ProLink2 (PK2), of which PK2 has higher affinity for the enzyme acceptor to detect weak protein-protein interactions. The CXCR3-PK2 construct is readily able to detect the differences in the propensity of CXCL11 and CXCL10 to induce β-arrestin 2 recruitment at CXCR3. […] Table 3. Ability of the 46/VUF10661 based positive allosteric modulators to activate the CXCR3 as measured in the β-arrestin 2 recruitment assay (PathHunter, DiscoveRx).[a]

[3] = % of CXCL11 mediated effect, membrane preparations of HEK293T stably expressing CXCR3
[4] = membrane preparations of HEK293T stably expressing CXCR3
[5] = HEK293-T cells, PathHunter, CXCR3-PK1, two to three experiments in triplicate

Structure (SMILES) | CXCR3 Efficacy (%) ± SEM [1, 3] | CXCR3 mediated G protein activation (result in words) [1] | CXCR3 pEC50 ± SEM [1, 4] | CXCR3-PK1 pEC50 ± SEM [2, 5] | Emax [1, 3] | other results
CC(C)(C)OC(=O)N[C@@H](CCCCNC(=O)[C@@H]1Cc2ccccc2CN1C(=O)CCC(=O)N1CCOCC1)C(=O)NCC(c1ccccc1)c1ccccc1 [Compound 17, Tert-butyl ((S)-1-((2,2-diphenylethyl)amino)-6-((S)-2-(4-moipholino-4--oxobutanoyl)-1,2,3,4-tetrahydroisoquinoline-3-carboxamido)-1-oxohexan-2 yl)carbamate] | No effect | no effect | No effect | No effect |  | 
CN1CCN(C(=O)CCC(=O)N2Cc3ccccc3C[C@H]2C(=O)NCCCC[C@H](NC(=O)OC(C)(C)C)C(=O)NCC(c2ccccc2)c2ccccc2)CC1.O=C(O)C(F)(F)F [Compound 18, 4-(4-((S)-3-(((S)-5-((tert-butoxycarbonyl)amino)-6-((2,2-diphenylethyl)amino)-6-oxohexyl)carbamoyl)-3,4-dihydroisoquinolin-2(1H)-yl)-4-oxobutanoyl)-1-methylpiperazin-1-ium 2,2,2-trifluoroacetate] | No effect | no effect | No effect | No effect |  | 
CC(C)(C)OC(=O)N[C@@H](CCCCNC(=O)[C@@H]1Cc2ccccc2CN1C(=O)CCCc1ccccc1)C(=O)NCC(c1ccccc1)c1ccccc1 [Compound 22, Tert-butyl ((S)-1-((2,2-diphenylethyl)amino)-1-oxo-6-((S)-2-(4-phenylbutanoyl)-1,2,3,4-tetrahydroisoquinoline-3-carboxammido)hexan-2-yl)carbamate] |  |  | 5.07±0.50 | No effect |  | Emax [1]: 29 ± 15%
NCCCC[C@H](NC(=O)[C@@H]1Cc2ccccc2CN1C(=O)CCC(=O)c1ccccc1)C(=O)NCC(c1ccccc1)c1ccccc1.O=C(O)C(F)(F)F [Compound 46, (S)-6-((2,2-diphenylethyl)amino)-6-oxo-5-((S)-2-(4-oxo-4-phenylbutanoyl)-1,2,3,4-tetrahydroisoquinoline-3-carboxamido)hexan-1-aminium 2,2,2-trifluoroacetate, reference compound] |  |  |  |  | 109 ± 3% | CXCR3 pEC50 ± SEM ([1]; membrane preparations of HEK293T stably expressing CXCR3, listed as 46/VUF10661, 2,2,2-trifluoroacetate): 6.2 ± 0.1 and 6.20±0.06; EC50 ([1]; membrane preparations of HEK293T stably expressing CXCR3, read-out: EC50 / potency in [35S]GTPγS incorporation): 600 nM; Emax ([2]; % of CXCL11 mediated effect, CXCR3-PK1, read-out: CXCR3-PK1 efficacy (%) (converted)): 139%; CXCR3-PK1 pEC50 ± SEM ([2]; HEK293-T cells, PathHunter, CXCR3-PK1, two to three experiments in triplicate, listed as 46/VUF10661, 2,2,2-trifluoroacetate): 5.89 ± 0.07; higher efficacy than CXCL11 ([2]; β-arrestin 2 recruitment, relative to CXCL11): ~40%

Continued, in another order:

CXCR3 Efficacy (%) ± SEM [1, 3] | CXCR3 mediated G protein activation (result in words) [1] | CXCR3 pEC50 ± SEM [1, 4] | CXCR3-PK1 pEC50 ± SEM [2, 5] | Emax [1, 3] | Structure (SMILES) | other results
18±1% |  | 7.30±0.17 | No effect | 18% | COc1ccc(C(=O)CCC(=O)N2Cc3ccccc3C[C@H]2C(=O)NCCCC[C@H](NC(=O)OC(C)(C)C)C(=O)NCC(c2ccccc2)c2ccccc2)cc1OC [Compound 21, Tert-butyl ((S)-6-((S)-2-(4-(3,4-dimethoxyphenyl)-4-oxobutanoyl)-1,2,3,4-tetrahydroisoquinoline-3-carboxamido)-1-((2,2-diphenylethyl)amino)-1-oxohexan-2-yl)carbamate] | β-arrestin 2 recruitment, intrinsic agonism (result in words) [2]: complete loss of intrinsic agonistic properties
 |  | 5.91±0.20 | No effect | 25 ± 3% | CC(C)(C)OC(=O)N[C@@H](CCCCNC(=O)[C@@H]1Cc2ccccc2CN1C(=O)CCC(=O)c1ccc(S(C)(=O)=O)cc1)C(=O)NCC(c1ccccc1)c1ccccc1 [Compound 15, Tert-butyl ((S)-1-((2,2-diphenylethyl)amino)-6-((S)-2-(4-(4-(methylsulfonyl)phenyl)-4-oxobutanoyl)-1,2,3,4-tetrahydroisoquinoline-3-carboxamido)-1-oxohexan-2-yl)carbamate] | β-arrestin 2 recruitment, intrinsic agonism (result in words) [2]: complete loss of intrinsic agonistic properties
 |  | 5.88±0.10 |  | 47 ± 3% | CC(C)(C)OC(=O)NCCCC[C@H](NC(=O)[C@@H]1Cc2ccccc2CN1C(=O)CCC(=O)c1ccccc1)C(=O)NCC(c1ccccc1)c1ccccc1 [Compound 44, Tert-buyl ((S)-6-((2,2-diphenylethyl)amino)-6-oxo-5-((S)-2-(4-oxo-4-phenylbutanoyl)-1,2,3,4-tetrahydroisoquinoline-3-carboxamido)hexyl)carbamate] | CXCR3-PK1 efficacy (%) at 10µM ([2]; @10µM, % of CXCL11 mediated effect, CXCR3-PK1): 70%; EC50 ([2]; HEK293-T cells, PathHunter, CXCR3-PK1, two to three experiments in triplicate, read-out: CXCR3-PK1 pEC50 ± SEM (converted)): < 10000 nM
No effect | no reactivity was observed | No effect | No effect |  | CC(C)(C)OC(=O)N[C@@H](CCCCNC(=O)[C@@H]1Cc2ccccc2CN1C(=O)CCC(=O)N1CCCCC1)C(=O)NCC(c1ccccc1)c1ccccc1 [Compound 16, Tert-butyl ((S)-1-((2,2-diphenylethyl)amino)-1-oxo-6-((S)-2-(4-oxo-4-(piperidin-1-yl)butanoyl)-1,2,3,4-tetrahydroisoquinoline-3-carboxamido)hexan-2-yl)carbamate] | 

— EP3156398A1, “AGONISTS OF THE CHEMOKINE RECEPTOR CXCR3” (Friedrich-Alexander-Universität Erlangen-Nürnberg, priority 2015, dated 2017)
